Experimental data from the supplement of paper PMC10949913.

Key:
Assay in all cases: area under concentration-response curve (viability) (AUC (a.u.)); higher = less active
Settings in all cases: 48 h
CU-ACC1 = test system: CU-ACC1
Procedure, shortened: (§1)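 After 48 h of treatment with 23 nL of each library compound at 11 concentrations, three adrenocortical carcinoma cell lines in 1,536-well plates (500–1,000 cells/well, 5 µL medium) were given CellTiter-Glo for 15 minutes at room temperature. Luminescence was then read and normalised per plate to vehicle and empty-well controls. AC50 and area under the curve were drawn from fitted concentration-response curves of inhibitory or non-responding classes only.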

CU-ACC2 = test system: CU-ACC2
Procedure, shortened: as §1

NCI-H295R = test system: NCI-H295R
Procedure, shortened: as §1

Compound: CC(C)C[C@H](NC(=O)[C@@H](O)[C@H](N)Cc1ccccc1)C(=O)O
- area under concentration-response curve (CU-ACC1): 459
- area under concentration-response curve (CU-ACC2): 571
- area under concentration-response curve (NCI-H295R): 494

Compound: O=C(NC1CCOCC1)c1ccc(-c2cc(-c3c[nH]nc3-c3ccccn3)ccn2)cc1
- area under concentration-response curve (CU-ACC1): 429
- area under concentration-response curve (CU-ACC2): 497
- area under concentration-response curve (NCI-H295R): 453

Compound: CO[C@H]1O[C@@H]2O[C@@]3(C)CC[C@H]4[C@H](C)CC[C@@H]([C@H]1C)[C@@]24OO3
- area under concentration-response curve (CU-ACC1): 470
- area under concentration-response curve (CU-ACC2): 553
- area under concentration-response curve (NCI-H295R): 506

Compound: C[N]1C=C(C2=C1C=CC=C2)\C3=C(\C(=O)NC3=O)C4=C5CC(CN)CC[N]5C6=C4C=CC=C6 (centres undefined)
- area under concentration-response curve (CU-ACC1): 517
- area under concentration-response curve (CU-ACC2): 620
- area under concentration-response curve (NCI-H295R): 559

Compound: CCC(=O)NC[C@H](Cc1ccc(OCCc2nc(-c3ccccc3)oc2C)cc1)N/C(C)=C\C(=O)c1ccc(C(F)(F)F)cc1
- area under concentration-response curve (CU-ACC1): 498
- area under concentration-response curve (CU-ACC2): 548
- area under concentration-response curve (NCI-H295R): 487

Compound: O=C(NCc1ccccc1)[C@H](Cc1ccccc1)NC(=O)[C@H]1O[C@@H]1C(=O)NCCc1ccc(O)cc1
- area under concentration-response curve (CU-ACC1): 495
- area under concentration-response curve (CU-ACC2): 557
- area under concentration-response curve (NCI-H295R): 524

Compound: CC(C)C(C)/C=C/C(C)C1CCC2C3=CC=C4CC(O)CCC4(C)C3CCC21C (centres undefined)
- area under concentration-response curve (CU-ACC1): 521
- area under concentration-response curve (CU-ACC2): 636
- area under concentration-response curve (NCI-H295R): 597

Compound: NC(=O)c1ncn([C@@H]2O[C@H](CO)[C@@H](O)[C@H]2O)c1N
- area under concentration-response curve (CU-ACC1): 418
- area under concentration-response curve (CU-ACC2): 519
- area under concentration-response curve (NCI-H295R): 545

Compound: CCCOc1ccc2[nH]c(NC(=O)OC)nc2c1
- area under concentration-response curve (CU-ACC1): 499
- area under concentration-response curve (CU-ACC2): 568
- area under concentration-response curve (NCI-H295R): 480

Compound: C[Se]CCC(N)C(=O)O (centres undefined)
- area under concentration-response curve (CU-ACC1): 540
- area under concentration-response curve (CU-ACC2): 550
- area under concentration-response curve (NCI-H295R): 479

Compound: CC(=O)N[C@H]1[C@H](O[C@@H]2c3ccc(c(Cl)c3)Oc3cc4cc(c3O[C@@H]3O[C@H](CO)[C@@H](O)[C@H](O)[C@H]3NC(=O)CCCCCCCC(C)C)Oc3ccc(cc3Cl)C[C@H]3NC(=O)[C@H](N)c5ccc(O)c(c5)Oc5cc(O)cc(c5)[C@H](NC3=O)C(=O)N[C@H]4C(=O)N[C@H]3C(=O)N[C@@H]2C(=O)N[C@@H](C(=O)O)c2cc(O)cc(O[C@H]4O[C@H](CO)[C@@H](O)[C@H](O)[C@@H]4O)c2-c2cc3ccc2O)O[C@H](CO)[C@@H](O)[C@@H]1O
- area under concentration-response curve (CU-ACC1): 492
- area under concentration-response curve (CU-ACC2): 593
- area under concentration-response curve (NCI-H295R): 551

Compound: C[C@H]1C[C@@H](n2c(Nc3ccc(OC(F)(F)F)cc3)nc3cc(CCC(=O)O)ccc32)CC(C)(C)C1
- area under concentration-response curve (CU-ACC1): 424
- area under concentration-response curve (CU-ACC2): 405
- area under concentration-response curve (NCI-H295R): 485

Compound: COc1cc(C(C)C)c(Oc2cnc(NC(CO)CO)nc2N)cc1I
- area under concentration-response curve (CU-ACC1): 557
- area under concentration-response curve (CU-ACC2): 661
- area under concentration-response curve (NCI-H295R): 594

Compound: Nc1nc(N)c2nc(CNc3ccc(C(=O)NC(CCC(=O)O)C(=O)O)cc3)cnc2n1 (centres undefined)
- area under concentration-response curve (CU-ACC1): 458
- area under concentration-response curve (CU-ACC2): 543
- area under concentration-response curve (NCI-H295R): 515

Compound: CC(NCCc1ccc(O)cc1)C(O)c1ccc(O)cc1 (centres undefined)
- area under concentration-response curve (CU-ACC1): 523
- area under concentration-response curve (CU-ACC2): 592
- area under concentration-response curve (NCI-H295R): 496

Compound: C[C@H]1CN(C[C@H](Cc2ccccc2)C(=O)NCC(=O)O)CC[C@@]1(C)c1cccc(O)c1
- area under concentration-response curve (CU-ACC1): 569
- area under concentration-response curve (CU-ACC2): 662
- area under concentration-response curve (NCI-H295R): 577

Compound: O=C(O)/C=C/c1ccc(Cn2ccnc2)cc1
- area under concentration-response curve (CU-ACC1): 485
- area under concentration-response curve (CU-ACC2): 486
- area under concentration-response curve (NCI-H295R): 572

Compound: CCCNC(=O)c1cn2ncnc(Nc3cc(C(=O)NC4CC4)ccc3C)c2c1C
- area under concentration-response curve (CU-ACC1): 539
- area under concentration-response curve (CU-ACC2): 654
- area under concentration-response curve (NCI-H295R): 583

Compound: OC1=CC2=C(C(=C1)O)C(=O)\C(=C(/O2)C3=CC(=C(O)C(=C3)O)O)O
- area under concentration-response curve (CU-ACC1): 553
- area under concentration-response curve (CU-ACC2): 600
- area under concentration-response curve (NCI-H295R): 508

Compound: CN(C)c1nc(N(C)C)nc(N(C)C)n1
- area under concentration-response curve (CU-ACC1): 509
- area under concentration-response curve (CU-ACC2): 577
- area under concentration-response curve (NCI-H295R): 476

Compound: CC(C)Cn1cnc2c(N)nc3ccccc3c21
- area under concentration-response curve (CU-ACC1): 640
- area under concentration-response curve (CU-ACC2): 683
- area under concentration-response curve (NCI-H295R): 630

Compound: COc1ccccc1N1CCN(CC(O)COc2cccc3ccccc23)CC1 (centres undefined)
- area under concentration-response curve (CU-ACC1): 458
- area under concentration-response curve (CU-ACC2): 515
- area under concentration-response curve (NCI-H295R): 501

Compound: O=c1cc(O)c(Cl)c[nH]1
- area under concentration-response curve (CU-ACC1): 558
- area under concentration-response curve (CU-ACC2): 641
- area under concentration-response curve (NCI-H295R): 586
